The source of these data is ChEMBL document CHEMBL1201862, “PubChem BioAssay data set” (2004).

Some test systems named below: IGROV-1; DU-145; A549; BT-549; MDA-N; RPMI-8226; U-251; MCF7; MOLT-4; TK-10; OVCAR-5; HCC 2998; OVCAR-8; SK-OV-3; MDA-MB-435; NCI-H23; HCT-15; NCI-H522; NCI-H460; HOP-92.
Common to all, as to assay: NCI-60 cell line screen, 48 h

The structures appear in SMILES notation.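 These data come from cells grown in 96-well plates and exposed to compound for 48 hours at five concentrations. GI50 marks 50% less growth.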 The source made the active and inactive calls. Rule as the data show it: active = GI50 up to about 1.1 µM and inactive = higher.

As for `COc1c2c(c3c(c1CCC(=O)O)OC(C)(C)C=C3)OC(C)(C)C=C2`, the GI50 is > 100 µM (inactive) in the assay on IGROV-1; > 100 µM (inactive) in the assay with DU-145; 54.5 µM (inactive) with A549; > 100 µM (inactive) with BT-549; 31.4 µM (inactive) in the assay with MDA-N; 48.4 µM (inactive) with RPMI-8226. Further, the GI50 was > 100 µM (inactive) with U-251; > 100 µM (inactive) in the assay on MCF7; 65.9 µM (inactive) in the assay with MOLT-4; > 100 µM (inactive) in the assay on TK-10; > 100 µM (inactive) in the assay on OVCAR-5; > 100 µM (inactive) with HCC 2998. The GI50 in the assay with OVCAR-8 is > 100 µM (inactive); in the assay on SK-OV-3 it was > 100 µM (inactive); with MDA-MB-435 it was 28.9 µM (inactive); in the assay with NCI-H23, > 100 µM (inactive); with HCT-15 it was greater than 100 µM; with NCI-H522 it was 55.1 µM (inactive).
For `CCCCCC(=O)n1[nH]c(=O)n(-c2ccc(OC)cc2)c1=O`, the GI50 with IGROV-1, in the assay on DU-145, with A549, in the assay with BT-549, with MDA-N and with RPMI-8226 was > 100 µM (inactive) in each case. Also, the GI50 in the assay with U-251, with MCF7, with MOLT-4, in the assay with TK-10, with OVCAR-5 and in the assay with HCC 2998 was > 100 µM (inactive) throughout. Further, the GI50 in the assay on OVCAR-8 is > 100 µM (inactive); in the assay with SK-OV-3, > 100 µM (inactive); in the assay on MDA-MB-435, > 100 µM (inactive); with NCI-H23, > 100 µM (inactive); in the assay on HCT-15, greater than 100 µM; in the assay on NCI-H460 it was > 100 µM (inactive). The GI50 with NCI-H522 is 57.5 µM (inactive).
Take `COc1ccc(-c2nc(Nc3ccccc3)sc2Cc2sc(Nc3ccccc3)nc2-c2ccc(OC)cc2)cc1`: the GI50 was > 100 µM (inactive) in the assay on IGROV-1; > 100 µM (inactive) with DU-145; > 100 µM (inactive) in the assay on A549; > 100 µM (inactive) in the assay with BT-549; 46.1 µM (inactive) in the assay with MDA-N; 1.8 µM (inactive) in the assay on RPMI-8226. Moreover, the GI50 is > 100 µM (inactive) in the assay on U-251; 8.05 µM (inactive) in the assay on MCF7; 12.6 µM (inactive) with MOLT-4; > 100 µM (inactive) in the assay with TK-10; > 100 µM (inactive) in the assay with OVCAR-5; > 100 µM (inactive) in the assay with HCC 2998. The GI50 is > 100 µM (inactive) in the assay on OVCAR-8; > 100 µM (inactive) with SK-OV-3; 52.4 µM (inactive) in the assay on MDA-MB-435; 37.7 µM (inactive) in the assay with NCI-H23; greater than 100 µM in the assay on HCT-15; 51.8 µM (inactive) in the assay on NCI-H460.
Regarding `O=c1nc2n(cc1/C=C\Br)C1CC(O)C(CO2)O1` (centres undefined), the GI50 in the assay with IGROV-1, in the assay with DU-145, in the assay with A549, in the assay with BT-549, in the assay on MDA-N and in the assay with RPMI-8226 was > 100 µM (inactive) throughout. Besides, the GI50 in the assay with U-251, with MCF7, with MOLT-4, in the assay on TK-10, in the assay with OVCAR-5 and with HCC 2998 was > 100 µM (inactive) throughout. The GI50 in the assay on OVCAR-8 is > 100 µM (inactive); in the assay on SK-OV-3, > 100 µM (inactive); in the assay on MDA-MB-435, > 100 µM (inactive); with NCI-H23, > 100 µM (inactive); in the assay with HCT-15 it was greater than 100 µM; in the assay with NCI-H460 it was > 100 µM (inactive).
For `Nc1ccccc1CCN1CCN(CCCc2ccccc2)CC1`, the GI50 is 50.6 µM (inactive) in the assay on IGROV-1; > 100 µM (inactive) in the assay with DU-145; 70.8 µM (inactive) in the assay on A549; > 100 µM (inactive) with BT-549; 53 µM (inactive) in the assay on MDA-N; 27.8 µM (inactive) in the assay on RPMI-8226. In addition, the GI50 with U-251 was > 100 µM (inactive); in the assay with MCF7 it was 46.8 µM (inactive); in the assay with MOLT-4, 53.3 µM (inactive); in the assay with TK-10 it was 91.2 µM (inactive); in the assay on OVCAR-5 it was > 100 µM (inactive); in the assay with HCC 2998, 19.4 µM (inactive). Also, the GI50 in the assay with OVCAR-8 was 49.5 µM (inactive); with SK-OV-3, > 100 µM (inactive); in the assay on MDA-MB-435 it was 72.4 µM (inactive); in the assay with NCI-H23, > 100 µM (inactive); in the assay with HCT-15, 33.2 µM; with NCI-H460, 41.1 µM (inactive). Moreover, in the assay on NCI-H522, the GI50 is 39.2 µM (inactive).
Take `CC(C)CCn1nc(N)c2nc3ccccc3nc21`: the GI50 in the assay on IGROV-1, in the assay with A549, in the assay with BT-549, in the assay on MDA-N, with RPMI-8226 and in the assay on U-251 was > 100 µM (inactive) each time. For the same molecule, the GI50 in the assay on HOP-92 was > 100 µM (inactive); in the assay with MCF7, 72.8 µM (inactive); in the assay with MOLT-4, 26.3 µM (inactive); in the assay with TK-10 it was > 100 µM (inactive); in the assay on OVCAR-5, > 100 µM (inactive); with HCC 2998, > 100 µM (inactive). Moreover, the GI50 with OVCAR-8 is > 100 µM (inactive); with SK-OV-3, > 100 µM (inactive); in the assay on MDA-MB-435 it was > 100 µM (inactive); in the assay with NCI-H23, > 100 µM (inactive); in the assay on HCT-15, greater than 10 µM; with NCI-H460, 57 µM (inactive). The GI50 in the assay with NCI-H522 was > 100 µM (inactive).
Turning to `Oc1cc(-c2ccccc2)nc2cc3c(cc12)OCO3`, the GI50 in the assay on IGROV-1 is 13.6 µM (inactive); with DU-145, 79.4 µM (inactive); in the assay with A549 it was 14 µM (inactive); with BT-549 it was 40.8 µM (inactive); in the assay on MDA-N, 4.11 µM (inactive); in the assay with RPMI-8226, 11 µM (inactive). Besides, the GI50 in the assay on U-251 was 29.2 µM (inactive); with HOP-92 it was 3.98 µM (inactive); with MCF7, 36.8 µM (inactive); in the assay with MOLT-4, 15.1 µM (inactive); with TK-10 it was 39 µM (inactive); with OVCAR-5 it was > 84.3 µM (inactive). The GI50 in the assay on HCC 2998 is 15.6 µM (inactive); in the assay with OVCAR-8, 14.5 µM (inactive); with SK-OV-3, 6.92 µM (inactive); in the assay with NCI-H23, 8.55 µM (inactive); in the assay on HCT-15, 18.8 µM; in the assay on NCI-H460 it was 7.87 µM (inactive). Further, the GI50 in the assay with NCI-H522 was 3.93 µM (inactive).
For the molecule `c1ccc2c(c1)Sc1ccccc1N2CC1CN2CCC1CC2` (centres undefined) [MEQUITAZINE], the GI50 was 11.2 µM (inactive) in the assay on IGROV-1; 6.73 µM (inactive) in the assay with DU-145; 9.71 µM (inactive) in the assay with A549; 14.5 µM (inactive) in the assay on BT-549; 2.99 µM (inactive) in the assay on RPMI-8226; 4.24 µM (inactive) in the assay with U-251. Besides, the GI50 in the assay on HOP-92 is 11 µM (inactive); with MCF7, 3.4 µM (inactive); in the assay with MOLT-4 it was 3.42 µM (inactive); with TK-10, 6.41 µM (inactive); in the assay with OVCAR-5, 11.7 µM (inactive); in the assay on HCC 2998 it was 1.29 µM (inactive). The GI50 in the assay with OVCAR-8 was 13.4 µM (inactive); with SK-OV-3, 12.5 µM (inactive); in the assay on MDA-MB-435, 2.8 µM (inactive); in the assay on NCI-H23 it was 13 µM (inactive); in the assay with HCT-15 it was 7.18 µM; in the assay on NCI-H460 it was 3.26 µM (inactive). For the same molecule, the GI50 in the assay with NCI-H522 was 4.82 µM (inactive).
